Laboratory results published in patent publication US12528818B2, “Compositions and methods for inhibition of RAS” (Leidos Biomedical Research, Inc., priority 2021, dated 2026).
pIC50: −log10 of the molar value. Read-outs that look alike come from different tables or passages of the source.

Test system: pERK in NCI-H358 cells
Assay: Cell-based pERK HTRF assay (pERK inhibition in H358 cells)
Conditions: pERK inhibition IC50, NCI-H358 cells, 30 min incubation, read-out: PERK in H358 cell

| pIC50 (Homo sapiens, NCI-H358, 0.5 h) | pIC50 | Compound |
| --- | --- | --- |
| 6.00 to 7.00 |  | C=CC(=O)N1CCC(N(CC)c2nc(OC[C@@H]3CCCN3C)nc3cc(-c4ccc(F)c5sc(N)c(C#N)c45)c(C#N)cc23)[C@H]1COC (stereo partly shown) [Compound 470] |
| > 7.00 |  | C=CC(=O)N1CCC(N(C)c2nc(OC[C@@H]3C[C@@H](F)CN3C)nc3c(F)c(-c4ccc(F)c5sc(N)c(C#N)c45)ccc23)[C@H]1COC (stereo partly shown) [Compound 423] |
| 6.00 to 7.00 |  | C=CC(=O)N1CCC(N(C)c2nc(OC[C@@]34CCCN3C[C@H](F)C4)nc3c(C#N)c(-c4ccc(F)c5sc(N)c(C#N)c45)ccc23)[C@H]1C (stereo partly shown) [Compound 404] |
| > 7.00 |  | C=CC(=O)N1CCC(N(C)c2nc(OC[C@@H]3CCCN3C)nc3c(F)c(-c4ccc(F)c5sc(N)c(C#N)c45)c(C(F)(F)F)cc23)[C@H]1C (stereo partly shown) [Compound 400] |
| > 7.00 |  | C=CC(=O)N1CCC(N(C)c2nc(OC[C@@H]3C[C@@H](F)CN3C)nc3c(F)c(-c4ccc(F)c5sc(N)c(C#N)c45)c(C(F)(F)F)cc23)[C@H]1C (stereo partly shown) [Compound 399] |
| > 7.00 |  | C=CC(=O)N1C[C@H](C)N(c2nc(OC[C@@H]3CC4(CC4)CN3C)nc3c(F)c(-c4ccc(F)c5sc(N)c(C#N)c45)c(C(F)(F)F)cc23)C[C@H]1C [Compound 410, 4-(4-((2S,5R)-4-acryloyl-2,5-dimethylpiperazin-1-yl)-8-fluoro-2-(((S)-5-methyl-5-azaspiro[2.4]heptan-6-yl)methoxy)-6-(trifluoromethyl)quinazolin-7-yl)-2-amino-7-fluorobenzo[b]thiophene-3-carbonitrile] |

The remaining lines, values behind:

| Compound | pIC50 (Homo sapiens, NCI-H358, 0.5 h) | pIC50 |
| --- | --- | --- |
| C=CC(=O)N1CC[C@@H](N(C)c2nc(OC[C@]34CCCN3C[C@H](OC)C4)nc3c(F)c(-c4ccc(F)c5sc(N)nc45)c(C(F)(F)F)cc23)C1 (atropisomer, axis not shown) [Compound 277] | > 7.00 |  |
| C=CC(=O)N1CC[C@@H](Nc2nc(OC[C@@]34CCCN3C[C@H](F)C4)nc3c(F)c(-c4ccc(F)c5sc(N)nc45)c(C(F)(F)F)cc23)C1 (single isomer, unassigned) [Compound 271] |  | > 7.00 |
| C=CC(=O)N1CC[C@@H](N(C)c2nc(OC[C@@]34CCCN3C[C@H](F)C4)nc3c(F)c(-c4ccc(F)c5sc(N)c(C#N)c45)c(Cl)cc23)C1 [Compound 342] | > 7.00 |  |
| C=CC(=O)N1CC[C@@H](N(C)c2ncnc3c(F)c(-c4ccc(F)c5sc(N)c(C#N)c45)c(C(F)(F)F)cc23)C1 [Compound 383, 4-(4-(((R)-1-acryloylpyrrolidin-3-yl)(methyl)amino)-8-fluoro-6-(trifluoromethyl)quinazolin-7-yl)-2-amino-7-fluorobenzo[b]thiophene-3-carbonitrile] | > 7.00 |  |
| C=CC(=O)N1CCC(Nc2nc(OC[C@@H]3CCCN3C)nc3c(F)c(-c4ccc(F)c5sc(N)nc45)c(Cl)cc23)C1 (stereo partly shown) [Compound 52] | < 6.00 |  |
| C=CC(=O)N1CC[C@@H](N(C)c2nc(OCC34CCCN3CCC4)nc3c(F)c(-c4ccc(F)c5sc(N)nc45)c(C(F)(F)F)cc23)C1 (atropisomer, axis not shown) [Compound 221] |  | < 6.00 |
| C=CC(=O)N1CC[C@@H](N(C)c2nc(OC[C@@]34CCCN3C[C@H](F)C4)nc3c(F)c(-c4ccc(F)c5sc(N)c(C#N)c45)c(Cl)cc23)[C@H]1C [Compound 395, 4-(4-((1-acryloyl-2-methylpyrrolidin-3-yl)(methyl)amino)-6-chloro-8-fluoro-2-(((2R,7aS)-2-fluorotetrahydro-1H-pyrrolizin-7a(5H)-yl)methoxy)quinazolin-7-yl)-2-amino-7-fluorobenzo[b]thiophene-3-carbonitrile] | > 7.00 |  |
| C=CC(=O)N1C[C@H](N(C)c2nc(OC[C@@]34CCCN3C[C@H](F)C4)nc3c(F)c(-c4ccc(F)c5sc(N)nc45)c(C(F)(F)F)cc23)C2(CC2)C1 [Compound 294] | > 7.00 |  |
| C=CC(=O)N1C[C@H](N(C)c2nc(OC[C@@]34CCCN3C[C@H](F)C4)nc3c(F)c(-c4ccc(F)c5sc(N)nc45)c(C(F)(F)F)cc23)C(C)(C)C1 [Compound 301] | > 7.00 |  |
| C=CC(=O)N1CC[C@@H](N(C)c2nc(OC)nc3c(F)c(-c4ccc(F)c5sc(N)c(C#N)c45)c(C(F)(F)F)cc23)C1 [Compound 384] | > 7.00 |  |
